Data reported in US9085555B2, “Complement pathway modulators and uses thereof” (priority 2011, dated 2015).

target: Factor D (Homo sapiens (Human), UniProt P00746); experiment: biochemical; format: biochemical; details: read-out: IC50
Sequence (P00746 26-253): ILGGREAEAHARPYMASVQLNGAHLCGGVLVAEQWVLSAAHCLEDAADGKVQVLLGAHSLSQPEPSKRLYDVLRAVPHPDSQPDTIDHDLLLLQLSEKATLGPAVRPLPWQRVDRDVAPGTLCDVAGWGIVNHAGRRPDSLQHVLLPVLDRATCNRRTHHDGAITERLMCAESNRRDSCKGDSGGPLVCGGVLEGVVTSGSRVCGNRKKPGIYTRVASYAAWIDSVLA

Row | Compound | IC50
1 | CC(=O)c1nn(CC(=O)N2[C@@H]3C[C@@H]3C[C@H]2C(=O)Nc2cccc(OC(F)(F)F)c2F)c2ccc(OCC3CCCO3)cc12 (stereo partly drawn) [Example 772, (1R,3S,5R)-2-{2-[3-Acetyl-5-(tetrahydro-furan-2-ylmethoxy)-indazol-1-yl]-acetyl}-2-aza-bicyclo[3.1.0]hexane-3-carboxylic acid (2-fluoro-3-trifluoromethoxy-phenyl)-amide] | 7 nM
2 | CC(=O)c1cn(CC(=O)N2C[C@H](F)[C@@H](F)[C@H]2C(=O)NCc2cccc(Cl)c2F)c2ccccc12 [Example 773, (2R,3S,4S)-1-[2-(3-Acetyl-indol-1-yl)-acetyl]-3,4-difluoro-pyrrolidine-2-carboxylic acid 3-chloro-2-fluoro-benzylamide] | 28 nM
3 | (1R,3S,5R)-2-[2-(3-Acetyl-6- amino-pyrrolo[2,3-b]pyridin-1- yl)-acetyl]-2-aza-bicyclo [3.1.0]hexane-3-carboxylic acid 3-chloro-2-fluoro- benzylamide [Example 676] | 11 nM
4 | (1R,3S,5S)-5-Hydroxymethyl- 2-aza-bicyclo[3.1.0]hexane- 2,3-dicarboxylic acid 3-(3- chloro-2-fluoro-benzylamide) 2-[(1-methylcarbamoyl-1H- indol-3-yl)-amide] [Example 265] | 83 nM
5 | (2S,4R)-4-Fluoro-pyrrolidine-1,2-dicarboxylic acid 1-[(3-carbamoyl-indolizin-1-yl)-amide]2-[(3-trifluoromethoxy-phenyl)-amide] [Example 122] | 150 nM
6 | (2S,4S)-4-Amino-pyrrolidine-1,2-dicarboxylic acid 1-[(1-carbamoyl-1H-indol-3-yl)-amide] 2-[(2-phenoxy-ethyl)-amide] [Example 91] | 2950 nM
7 | (S)-1-[2-(3-Formyl-indol-1-yl)- acetyl]-pyrrolidine-2- carboxylic acid (3-trifluoro- methoxy-phenyl)-amide [Example 559] | 15700 nM
